The assay concerns the target T1, recombinant human ACC2 (Homo sapiens, UniProt O00763).
T1 construct: a cDNA encoding human ACC2 (27-2458) was cloned from human kidney cDNA library (Clontech); His-tag (N); made in house; host or cells: Sf-9 insect cells (Bac-to-Bac baculovirus)
The assay is described as follows: Measurement of inhibitory activity on human ACC2 (MALDI-TOF MS, acetyl CoA to malonyl CoA conversion). Type of assay: biochemical. Particulars: read-out: IC50.

Setting [1] is: inhibition activity on human ACC2, Table 79.
[2] abbreviates: inhibition activity on human ACC2, Table 80.

Like-named read-outs stand apart in the source and are kept apart here.

T1 sequence (O00763 27-2458): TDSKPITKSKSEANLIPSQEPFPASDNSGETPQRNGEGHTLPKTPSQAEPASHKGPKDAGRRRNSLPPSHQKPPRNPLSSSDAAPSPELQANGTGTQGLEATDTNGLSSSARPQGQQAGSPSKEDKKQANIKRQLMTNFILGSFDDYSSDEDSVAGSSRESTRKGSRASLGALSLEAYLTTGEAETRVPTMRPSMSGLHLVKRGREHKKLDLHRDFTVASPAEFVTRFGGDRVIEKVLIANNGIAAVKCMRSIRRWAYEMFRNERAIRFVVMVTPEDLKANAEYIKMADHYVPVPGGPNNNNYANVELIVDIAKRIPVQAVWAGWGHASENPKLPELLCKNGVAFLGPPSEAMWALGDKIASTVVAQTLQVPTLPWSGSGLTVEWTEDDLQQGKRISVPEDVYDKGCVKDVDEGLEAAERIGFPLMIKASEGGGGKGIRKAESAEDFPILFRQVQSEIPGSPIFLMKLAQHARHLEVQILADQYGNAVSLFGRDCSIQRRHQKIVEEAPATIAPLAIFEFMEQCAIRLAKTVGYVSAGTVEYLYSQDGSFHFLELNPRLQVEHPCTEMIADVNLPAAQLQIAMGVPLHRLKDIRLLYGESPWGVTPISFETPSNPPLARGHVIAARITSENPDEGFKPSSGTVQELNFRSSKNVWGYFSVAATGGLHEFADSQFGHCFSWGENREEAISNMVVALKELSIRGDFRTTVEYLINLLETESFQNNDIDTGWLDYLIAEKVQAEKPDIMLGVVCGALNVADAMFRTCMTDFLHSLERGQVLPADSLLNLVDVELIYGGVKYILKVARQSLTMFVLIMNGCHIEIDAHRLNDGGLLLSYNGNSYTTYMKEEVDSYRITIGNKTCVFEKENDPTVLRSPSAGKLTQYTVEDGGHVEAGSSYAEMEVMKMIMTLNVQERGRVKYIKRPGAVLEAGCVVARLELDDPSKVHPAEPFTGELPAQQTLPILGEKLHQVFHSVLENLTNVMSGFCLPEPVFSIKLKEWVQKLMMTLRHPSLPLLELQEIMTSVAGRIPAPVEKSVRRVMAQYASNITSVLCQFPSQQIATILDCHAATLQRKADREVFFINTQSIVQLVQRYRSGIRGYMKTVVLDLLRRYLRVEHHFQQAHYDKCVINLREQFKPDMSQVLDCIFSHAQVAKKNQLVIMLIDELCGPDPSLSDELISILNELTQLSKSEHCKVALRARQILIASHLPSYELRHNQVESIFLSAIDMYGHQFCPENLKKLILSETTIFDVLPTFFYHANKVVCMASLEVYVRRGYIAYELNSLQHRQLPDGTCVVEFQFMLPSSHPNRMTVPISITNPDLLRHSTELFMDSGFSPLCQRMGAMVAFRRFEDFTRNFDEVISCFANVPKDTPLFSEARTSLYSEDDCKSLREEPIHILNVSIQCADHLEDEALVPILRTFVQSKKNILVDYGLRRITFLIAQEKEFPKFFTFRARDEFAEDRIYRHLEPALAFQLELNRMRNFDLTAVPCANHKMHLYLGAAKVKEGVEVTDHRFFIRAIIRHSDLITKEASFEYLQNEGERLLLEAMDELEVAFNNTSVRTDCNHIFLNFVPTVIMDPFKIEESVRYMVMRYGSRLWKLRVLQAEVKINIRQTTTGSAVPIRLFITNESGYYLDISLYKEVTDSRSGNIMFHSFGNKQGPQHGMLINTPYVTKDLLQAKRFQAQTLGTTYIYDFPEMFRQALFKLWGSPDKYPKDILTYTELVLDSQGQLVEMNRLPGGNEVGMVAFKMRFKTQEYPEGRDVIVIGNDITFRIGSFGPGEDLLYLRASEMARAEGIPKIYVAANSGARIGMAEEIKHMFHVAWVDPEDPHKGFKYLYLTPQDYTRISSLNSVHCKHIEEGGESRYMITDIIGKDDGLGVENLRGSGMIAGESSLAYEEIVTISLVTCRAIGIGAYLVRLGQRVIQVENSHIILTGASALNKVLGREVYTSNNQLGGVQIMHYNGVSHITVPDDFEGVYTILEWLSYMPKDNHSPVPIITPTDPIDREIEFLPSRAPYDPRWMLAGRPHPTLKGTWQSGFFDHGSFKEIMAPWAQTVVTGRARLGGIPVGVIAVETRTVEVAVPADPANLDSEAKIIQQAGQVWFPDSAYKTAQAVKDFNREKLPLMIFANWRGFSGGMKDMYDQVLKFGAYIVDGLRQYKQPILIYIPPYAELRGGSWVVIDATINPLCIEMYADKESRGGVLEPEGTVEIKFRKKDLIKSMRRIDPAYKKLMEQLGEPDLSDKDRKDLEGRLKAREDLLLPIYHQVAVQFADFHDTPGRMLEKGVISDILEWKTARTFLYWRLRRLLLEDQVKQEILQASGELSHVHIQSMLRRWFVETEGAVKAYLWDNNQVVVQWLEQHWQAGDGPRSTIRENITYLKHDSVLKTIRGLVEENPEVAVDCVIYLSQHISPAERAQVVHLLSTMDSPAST
Protocol: To express human ACC2, Sf-9 cells were infected with recombinant baculovirus. After infected cells were disrupted, the filtrated lysate was subjected to Ni-affinity chromatography and anion-exchange chromatography. The fractions containing human ACC2 protein were pooled as recombinant human ACC2 solution.
Recombinant human ACC1 and recombinant human ACC2, which were prepared by the method mentioned above, were preincubated with assay buffer solution (50 mM HEPES-KOH (pH 7.4), 10 mM magnesium chloride, 6-10 mM potassium citrate, 4 mM reduced form of glutathione, 1.5 mg/ml bovine serum albumin) for one hour. Then, 0.2 μL of each this invention compound solution (in DMSO) were dispensed to 384-well microplate, 5 μL of the preincubated enzyme solution and 5 μL of substrate solution (50 mM HEPES-KOH (pH 7.4), 1 mM ATP, 0.8 mM acetyl CoA and 25-50 mM potassium bicarbonate) were added to microplate. After centrifugation and shaking, the reaction mixtures were incubated in a humidified box at room temperature for 1 to 3 hours. After the incubation, the enzyme reactions were stopped by the addition of EDTA. Then, after the samples were cocrystallized with CHCA (α-cyano-4-hydroxy cinnamic acid) matrices on MALDI target plate, by using the matrix assist laser deionization time-of-flight mass spectrometer (MALDI-TOF MS), samples were measured in reflector negative mode. Deprotonated ions of acetyl CoA (AcCoA) of substrate and malonyl CoA (MalCoA) of the reaction product were detected, then, the conversion rates of acetyl CoA to malonyl CoA was calculated by the intensity of [MalCoA-H]-/(Intensity of [MalCoA-H]-+Intensity of [AcCoA-H]-) using each signal strength. […] In addition, potassium citrate concentrations in assay buffer solution, potassium hydrogen carbonate concentrations in substrate solution and incubation time were adjusted by each lot of enzyme.

In the case of `CCCOc1ccc(Oc2ncc(/C=C/[C@H](C)NC(C)=O)s2)c(Cl)c1` [Compound I-2], under setting [1], the IC50 was determined as 16 nM. Same read-out and setting: with `CC(=O)N[C@@H](C)/C=C/c1cnc(Oc2ccc(OCC3CC3)cc2C#N)s1` [Compound I-6] the figure was 78 nM; with `CC(=O)N[C@@H](C)/C=C/c1cnc(Oc2cccc(OCC3CC3)c2Cl)s1` [Compound I-7], 31 nM; with `CC(=O)N[C@@H](C)/C=C/c1cnc(Oc2cccc(OC(C)C)c2C)s1` [Compound I-9], 82 nM.

Take `CCOc1ccc(Oc2ccc(/C=C/[C@H](C)NC(C)=O)cn2)c(Cl)c1` [Compound I-13]: the IC50 under setting [1] was found to be 52 nM. Same read-out and setting: then `CC(=O)N[C@@H](C)/C=C/c1ccc(Oc2ccc(OCC3CC3)cc2Cl)nc1` [Compound I-14], with 6.9 nM. Same read-out and setting: with `CCOc1ccc(COc2ccc(/C=C/[C@H](C)NC(C)=O)cn2)cc1` [Compound I-15] the figure was 71 nM; with `CCOc1ccc(Oc2ccc(/C=C/[C@H](C)NC(C)=O)cn2)cc1` [Compound I-16], 31 nM. Regarding `CC(=O)N[C@@H](C)/C=C/c1ccc(Oc2ccc(OCC3CC3)c(Cl)c2)nc1` [Compound I-23], under setting [1], the IC50 amounted to 5.2 nM. Same read-out and setting: then `CC(=O)N[C@@H](C)/C=C/c1ccc(Oc2ccc(NCC3CC3)c(Cl)c2)nc1` [Compound I-24], with 4.4 nM; and `COc1ccc(Cl)c(Oc2ccc(/C=C/[C@H](C)NC(C)=O)cn2)c1` [Compound I-27], with 1200 nM. The same measure, in the same setting: then `COc1cc(Cl)cc(Oc2ccc(/C=C/[C@H](C)NC(C)=O)cn2)c1` [Compound I-28], with 97 nM. Same read-out and setting: with `COc1cccc(Oc2ccc(/C=C/[C@H](C)NC(C)=O)cn2)c1Cl` [Compound I-29] the figure was 94 nM.

Consider `CC(=O)N[C@@H](C)/C=C/c1ccc(Oc2ccc(N3CCCC3)cc2Cl)nc1` [Compound I-32], for which the IC50 under setting [1] is 14 nM. Consider `CC(=O)N[C@@H](C)/C=C/c1ccc(Oc2ccc(OCC3CC3)nc2)nc1` [Compound I-33], for which the IC50 under setting [1] was found to be 12 nM. Still for that read-out and setting: with `COc1cncc(Oc2ccc(/C=C/[C@H](C)NC(C)=O)cn2)c1` [Compound I-34] the figure was 7100 nM.

As for `CCOc1ccc(OCc2ccc(/C=C/[C@H](C)NC(C)=O)cn2)c(Cl)c1` [Compound I-35], the IC50 under setting [1] worked out at 1100 nM. As for `CC(=O)N[C@@H](C)/C=C/c1ccc(Oc2ccc(OCC(C)C)cc2Cl)nc1` [Compound I-36], under setting [1], the IC50 stood at 6.5 nM. The same measure, in the same setting: then `CC(=O)N[C@@H](C)/C=C/c1ccc(Oc2ccc(OC(C)C)cc2Cl)nc1` [Compound I-37], with 37 nM; and `CCCOc1ccc(Oc2ccc(/C=C/[C@H](C)NC(C)=O)cn2)c(Cl)c1` [Compound I-38], with 9.1 nM; and `CC(=O)N[C@@H](C)/C=C/c1ccc(Oc2ccc(OC3CCC3)cc2Cl)nc1` [Compound I-39], with 11 nM. Same read-out and setting: then `CC(=O)N[C@@H](C)/C=C/c1ccc(Oc2cc(Cl)cc(OCC3CC3)c2)nc1` [Compound I-43], with 80 nM; and `CCOc1cc(Cl)cc(Oc2ccc(/C=C/[C@H](C)NC(C)=O)cn2)c1` [Compound I-45], with 83 nM; and `CC(=O)N[C@@H](C)/C=C/c1ccc(Oc2cccc(OC(C)C)c2Cl)nc1` [Compound I-47], with 25 nM. On the same count and under the same terms, with `CCOc1cccc(Oc2ccc(/C=C/[C@H](C)NC(C)=O)cn2)c1Cl` [Compound I-48] the figure was 37 nM. Consider `CC(=O)N[C@@H](C)/C=C/c1ccc(Oc2cccc(OC(C)C)c2)nc1` [Compound I-49], for which the IC50 under setting [1] was found to be 72 nM. Still for that read-out and setting: with `CC(=O)N[C@@H](C)/C=C/c1cnc(Oc2ccc(OCC3CC3)cc2Cl)nc1` [Compound I-52] the figure was 54 nM; with `CC(=O)N[C@@H](C)/C=C/c1cnc(Oc2ccc(NC(=O)OC(C)(C)C)cc2Cl)nc1` [Compound I-53], 940 nM. As to `CC(=O)N[C@@H](C)/C=C/c1cnc(Oc2ccc(NCC3CC3)cc2Cl)nc1` [Compound I-54], the IC50 under setting [1] is 430 nM.

Turning to `CC(=O)N[C@@H](C)/C=C/c1cnc(Oc2ccc(NC(C)C)cc2Cl)nc1` [Compound I-55], the IC50 under setting [1] came to 4500 nM. On the same count and under the same terms, then `CC(=O)N[C@@H](C)/C=C/c1ccc(Oc2ccc(OCC3CC3)cc2Cl)nn1` [Compound I-56], with 310 nM. Still for that read-out and setting: then `CC(=O)N[C@@H](C)/C=C/c1ccc(Oc2ccc(OCC3CC3)cc2Cl)cc1` [Compound I-57], with 2.2 nM.

Turning to `CC(=O)N[C@@H](C)/C=C/c1cnc(N2CCc3cc(OCC4CC4)ccc32)s1` [Compound I-59], the IC50 under setting [1] came out at 950 nM. Still for that read-out and setting: with `CCOc1ccc(C(F)(F)c2ccc(/C=C/[C@H](C)NC(C)=O)cn2)c(Cl)c1` [Compound I-62] the figure was 310 nM. The same measure, in the same setting: with `CC(=O)N[C@@H](C)/C=C/c1cnn(Cc2ccc(OCC3CC3)cc2Cl)c1` [Compound I-63] the figure was 830 nM; with `CC(=O)N[C@@H](C)/C=C/c1cnn(Cc2ccc(OCC3CC3)cc2)c1` [Compound I-64], 5900 nM. Same read-out and setting: with `CC(=O)N[C@@H](C)/C=C/c1cnn(CCc2ccc(OCC3CC3)cc2)c1` [Compound I-66] the figure was 5700 nM; with `CC(=O)N[C@@H](C)/C=C/c1cnn(Cc2ccc(OCC3CC3)cc2F)c1` [Compound I-67], 1200 nM. On to `CC(=O)N[C@@H](C)/C=C/c1cnn(Cc2c(Cl)cc(OCC3CC3)cc2Cl)c1` [Compound I-69], for which, under setting [1], the IC50 came to 470 nM.

Regarding `CSCCC(=O)N[C@@H](C)/C=C/c1cnc(Oc2ccc(OCC3CC3)cc2Cl)s1` [Compound I-72], the IC50 under setting [1] amounted to 230 nM. Same read-out and setting: with `C[C@@H](/C=C/c1cnc(Oc2ccc(OCC3CC3)cc2Cl)s1)NC(=O)CC#N` [Compound I-73] the figure was 53 nM; with `C[C@@H](/C=C/c1cnc(Oc2ccc(OCC3CC3)cc2Cl)s1)NC(=O)C1(C(N)=O)CC1` [Compound I-74], 57 nM; with `C[C@@H](/C=C/c1cnc(Oc2ccc(OCC3CC3)cc2Cl)s1)NC(=O)C1CC1` [Compound I-76], 30 nM.

In the case of `C[C@@H](/C=C/c1cnc(Oc2ccc(OCC3CC3)cc2Cl)s1)NC(=O)Cc1cccnc1` [Compound I-77], under setting [1], the IC50 came to 48 nM. Same read-out and setting: with `CC(=O)NCC(=O)N[C@@H](C)/C=C/c1cnc(Oc2ccc(OCC3CC3)cc2Cl)s1` [Compound I-78] the figure was 550 nM; with `C[C@@H](/C=C/c1cnc(Oc2ccc(OCC3CC3)cc2Cl)s1)NC(=O)CC(F)(F)F` [Compound I-82], 160 nM. With `C[C@@H](/C=C/c1cnc(Oc2ccc(OCC3CC3)cc2Cl)s1)NC(=O)C1(C)CC1` [Compound I-83], under setting [1], the IC50 was 48 nM.

For the molecule `C[C@@H](/C=C/c1cnc(Oc2ccc(OCC3CC3)cc2Cl)s1)NC(=O)C1CCOCC1` [Compound I-84], the IC50 under setting [1] is 460 nM. Still for that read-out and setting: with `C[C@@H](/C=C/c1cnc(Oc2ccc(OCC3CC3)cc2Cl)s1)NC(=O)CCCN1CCCC1=O` [Compound I-86] the figure was 440 nM; with `C[C@@H](/C=C/c1cnc(Oc2ccc(OCC3CC3)cc2Cl)s1)NC(=O)CCCn1cncn1` [Compound I-87], 350 nM. On the same count and under the same terms, then `C[C@@H](/C=C/c1cnc(Oc2ccc(OCC3CC3)cc2Cl)s1)NC(=O)CCCN1CCCC1` [Compound I-88], with 890 nM; and `COC(=O)CCCC(=O)N[C@@H](C)/C=C/c1cnc(Oc2ccc(OCC3CC3)cc2Cl)s1` [Compound I-94], with 140 nM; and `C[C@@H](/C=C/c1cnc(Oc2ccc(OCC3CC3)cc2Cl)s1)NC(=O)C1(C#N)CC1` [Compound I-97], with 120 nM. Still for that read-out and setting: then `CC(C)COCC(=O)N[C@@H](C)/C=C/c1cnc(Oc2ccc(OCC3CC3)cc2Cl)s1` [Compound I-103], with 970 nM; and `COCCOCC(=O)N[C@@H](C)/C=C/c1cnc(Oc2ccc(OCC3CC3)cc2Cl)s1` [Compound I-104], with 450 nM. Take `C[C@@H](/C=C/c1cnc(Oc2ccc(OCC3CC3)cc2Cl)s1)NC(=O)CN1C(=O)CCC1=O` [Compound I-105]: the IC50 under setting [1] amounted to 200 nM. Still for that read-out and setting: then `C[C@@H](/C=C/c1cnc(Oc2ccc(OCC3CC3)cc2Cl)s1)NC(=O)CCCCCCNC(=O)OC(C)(C)C` [Compound I-106], with 440 nM; and `COC(=O)c1ccn(CC(=O)N[C@@H](C)/C=C/c2cnc(Oc3ccc(OCC4CC4)cc3Cl)s2)n1` [Compound I-113], with 480 nM; and `C[C@@H](/C=C/c1cnc(Oc2ccc(OCC3CC3)cc2Cl)s1)NC(=O)CC(N)=O` [Compound I-116], with 150 nM. On the same count and under the same terms, then `CC(C)S(=O)(=O)NCCCCC(=O)N[C@@H](C)/C=C/c1cnc(Oc2ccc(OCC3CC3)cc2Cl)s1` [Compound I-117], with 38 nM.

With `CC(C)S(=O)(=O)NCCCC(=O)N[C@@H](C)/C=C/c1cnc(Oc2ccc(OCC3CC3)cc2Cl)s1` [Compound I-119], the IC50 under setting [2] turned out to be 61 nM.

As to `C[C@@H](/C=C/c1cnc(Oc2ccc(OCC3CC3)cc2Cl)s1)NC(=O)Cc1ccncc1` [Compound I-122], under setting [2], the IC50 is 150 nM.

As for `C[C@@H](/C=C/c1cnc(Oc2ccc(OCC3CC3)cc2Cl)s1)NC(=O)Cn1ccnc1` [Compound I-123], the IC50 under setting [2] came to 180 nM. The same measure, in the same setting: with `CCN1CCN(CCC(=O)N[C@@H](C)/C=C/c2cnc(Oc3ccc(OCC4CC4)cc3Cl)s2)CC1` [Compound I-124] the figure was 1400 nM. On the same count and under the same terms, with `C[C@@H](/C=C/c1cnc(Oc2ccc(OCC3CC3)cc2Cl)s1)NC(=O)CCO` [Compound I-125] the figure was 320 nM; with `C[C@@H](/C=C/c1cnc(Oc2ccc(OCC3CC3)cc2Cl)s1)NC(=O)[C@H]1CNC(=O)O1` [Compound I-133], 920 nM; with `CC(C)S(=O)(=O)NCCC(=O)N[C@@H](C)/C=C/c1cnc(Oc2ccc(OCC3CC3)cc2Cl)s1` [Compound I-134], 1800 nM. Same read-out and setting: then `CC(=O)Nc1cc(C(=O)N[C@@H](C)/C=C/c2cnc(Oc3ccc(OCC4CC4)cc3Cl)s2)ccn1` [Compound I-135], with 42 nM; and `CCOC(=O)c1cc(C(=O)N[C@@H](C)/C=C/c2cnc(Oc3ccc(OCC4CC4)cc3Cl)s2)ccn1` [Compound I-136], with 12 nM.

Values taken from patent US20150246938A1, “NOVEL OLEFIN DERIVATIVE” (SHIONOGI & CO., LTD., priority 2011, published 2015).
